Measured values reported in patent publication US10000791B2, “Measurement method for human pancreatic lipase activity” (ASAHI KASEI PHARMA CORPORATION, priority 2013, dated 2018).

Tested on: human pancreatic lipase
Experiment: lipase activity measured in control, normal and heparin-administered samples with each reagent (1,2-dioleoyl glycerol, UV method; Liquitech Lipase Color II for verification)
Format: biochemical
Parameters: lipase activity relative to (1) comparative example NaDCA (Table 1): concentration or dose not given beside the values
Conditions: for lipase activity (Table 1): NaDCA pH 8.15, other bile salts pH 7.0; for lipase activity (Table 2): comparative example pH 8.15, present example pH 7.1, bile acid 40 mmol/L in R-1
Procedure: A mixture of the substrate stock solution and the R-1 in a proportion of 1:2 was used as a first reagent. The R-2 was directly used as a second reagent. As a sample, pooled serum or a control sample (a control containing a pancreatic lipase) was used. A proportion in amount among the sample, the first reagent and the second reagent was set as sample:first reagent:second reagent of 0.01 ml:0.18 ml:0.06 ml. The sample was added to the first reagent, the resultant mixture was heated at 37° C. for 5 minutes, the second reagent was added thereto, and a change rate of an absorbance at 340 nm based on reduced NADP was obtained at 37° C. from 3 minutes after the addition of the second reagent to 4 minutes after the addition, and then, the lipase activity was calculated by using a molecular extinction coefficient of 6300 L/mol·cm of the reduced NADP. Besides, as a sample blank, saline was used instead of a sample, an absorbance was measured by using the reagent for sample blank obtained by removing MGLPII from the second reagent, and a difference between the thus measured two values was defined as an enzyme activity value. For the measurement, Hitachi automatic analyzer Model H7170 or H7080 was used.
Similarly to Example 1, a mixture of the substrate stock solution and the R-1 in a proportion of 1:2 was used as a first reagent. Except for this, the measurement was performed in the same manner as in Example 1.
A commercially available reagent for a resorufin colorimetric method, “Liquitech Lipase Color II” manufactured by Roche Diagnostics using 1,2-O-dilauryl-rac-glycerol-3-glutaric acid-(6-methylresorufin)ester (DGGR), which is regarded not to be influenced by a non-pancreatic lipase, such as a lipoprotein lipase or a hepatic lipase, appearing in blood due to administration of heparin, was used for verifying the effect of the present example. “Liquitech Lipase Color II” was used in accordance with the package insert, and a special calibrator was used for calculating the enzyme activity. […] The concentration of each bile acid used in the present example was set to be the same as that in the comparative example.
As samples, a control, non-heparin-administered samples (normal samples), and heparin-administered samples were used.
The compositions of the reagents were the same as those of Example 2. As a comparative example, NaDCA (in a concentration of 40 mmol/L in the R-1) was used as the bile acid, and the reaction solution was adjusted to pH 8.15 (by the Bicine buffer) for measuring a heparin-administered sample.
It is noted that CRM-001b containing a human pancreatic recombinant lipase dissolved not in distilled water but in a pooled serum was used as the calibrator to calculate the lipase activity.
As a bile acid of the present example and a reference example, NaTDCA was selected, and the pH dependence with the pH of a reaction solution changed in a range of 6.2 to 7.6 was examined. It is noted that a case of pH 7.6 was used as the reference example. An MES buffer was used for adjusting pH to 6.2 and 6.4, and the BES buffer was used for adjusting the other pHs. As samples, (six) control samples (controls each containing a pancreatic lipase) and (nine) heparin-administered samples were used. As a comparative example, NaDCA (in a concentration of 40 mmol/L in the R-1) was used as the bile acid, and a reaction solution having pH 8.15 (the Bicine buffer) was used. Besides, “Liquitech Lipase Color II” manufactured by Roche Diagnostics was used for verifying the effect of the present example.

C[C@H](CCC(=O)NCC(=O)[O-])[C@H]1CC[C@H]2[C@@H]3[C@H](O)C[C@@H]4C[C@H](O)CC[C@]4(C)[C@H]3CC[C@]12C.[Na+] [NaGCDCA, sodium glycochenodeoxycholate]
sensitivity at pH 7.95 compared with pH 7.0 (NaGCDCA 40 mmol/L in R-1): about 40% | lipase activity (Table 1) (Normal sample 1): 38.1 U/L | lipase activity relative to (1) comparative example NaDCA (Table 1) (Normal sample 1, pH 7.0): 97.5% | lipase activity (Table 1) (Normal sample 2): 75.6 U/L | lipase activity relative to (1) comparative example NaDCA (Table 1) (Normal sample 2, pH 7.0): 79.5% | lipase activity (Table 1) (Normal sample 3): 41.2 U/L | lipase activity relative to (1) comparative example NaDCA (Table 1) (Normal sample 3, pH 7.0): 88.4% | lipase activity (Table 1) (Normal sample 4): 31.7 U/L | lipase activity relative to (1) comparative example NaDCA (Table 1) (Normal sample 4, pH 7.0): 73.0% | lipase activity (Table 1) (Normal sample 5): 28.8 U/L | lipase activity relative to (1) comparative example NaDCA (Table 1) (Normal sample 5, pH 7.0): 70.8% | lipase activity (Table 1) (sample Heparin 1): 30.8 U/L | lipase activity (Table 2) (sample Heparin 1): 47.8 U/L | lipase activity relative to (1) comparative example NaDCA (Table 1) (sample Heparin 1, pH 7.0): 40.1% | lipase activity (Table 1) (sample Heparin 2): 41.3 U/L | lipase activity (Table 2) (sample Heparin 2): 25.9 U/L | lipase activity relative to (1) comparative example NaDCA (Table 1) (sample Heparin 2, pH 7.0): 47.6% | lipase activity (Table 1) (sample Heparin 3): 29.8 U/L | lipase activity (Table 2) (sample Heparin 3): 44.0 U/L | lipase activity relative to (1) comparative example NaDCA (Table 1) (sample Heparin 3, pH 7.0): 26.4% | lipase activity (Table 1) (sample Heparin 4): 31.6 U/L | lipase activity relative to (1) comparative example NaDCA (Table 1) (sample Heparin 4, pH 7.0): 31.2% | lipase activity (Table 1) (sample Heparin 5): 17.8 U/L | lipase activity relative to (1) comparative example NaDCA (Table 1) (sample Heparin 5, pH 7.0): 26.0% | lipase activity (Table 1) (sample Heparin 6): 22.5 U/L | lipase activity relative to (1) comparative example NaDCA (Table 1) (sample Heparin 6, pH 7.0): 32.5% | lipase activity (Table 1) (sample Heparin 7): 51.0 U/L | lipase activity relative to (1) comparative example NaDCA (Table 1) (sample Heparin 7, pH 7.0): 36.9% | lipase activity (Table 1) (sample Heparin 8): 36.6 U/L | lipase activity relative to (1) comparative example NaDCA (Table 1) (sample Heparin 8, pH 7.0): 29.0% | lipase activity (Table 1) (sample Heparin 9): 75.4 U/L | lipase activity relative to (1) comparative example NaDCA (Table 1) (sample Heparin 9, pH 7.0): 44.7% | lipase activity (Table 5) (sample Heparin 31, pH 7.0): 40.7 U/L | lipase activity (Table 5) (sample Heparin 31, pH 7.95): 60.7 U/L | lipase activity (Table 5) (sample Heparin 32, pH 7.0): 32.7 U/L | lipase activity (Table 5) (sample Heparin 32, pH 7.95): 77.0 U/L | lipase activity (Table 1) (sample PRECINORM): 42.3 U/L | lipase activity (Table 5) (sample PRECINORM, pH 7.0): 42.3 U/L | lipase activity relative to (1) comparative example NaDCA (Table 1) (sample PRECINORM, pH 7.0): 82.9% | lipase activity (Table 5) (sample PRECINORM, pH 7.95): 24.0 U/L | lipase activity (Table 1) (sample PRECIPATH): 109.9 U/L | lipase activity (Table 5) (sample PRECIPATH, pH 7.0): 109.9 U/L | lipase activity relative to (1) comparative example NaDCA (Table 1) (sample PRECIPATH, pH 7.0): 85.9% | lipase activity (Table 5) (sample PRECIPATH, pH 7.95): 57.3 U/L | lipase activity (Table 5) (sample Pool 1, pH 7.0): 36.9 U/L | lipase activity (Table 5) (sample Pool 1, pH 7.95): 19.4 U/L | lipase activity (Table 5) (sample Pool 2, pH 7.0): 17.5 U/L | lipase activity (Table 5) (sample Pool 2, pH 7.95): 15.4 U/L | lipase activity (Table 5) (sample Seraclear LP, pH 7.0): 17.5 U/L | lipase activity (Table 5) (sample Seraclear LP, pH 7.95): 7.5 U/L
